Source: patent US6608082B1, “Treatment of erectile dysfunction using isoquinoline compound melanocortin receptor ligands” (Lion Bioscience AG, priority 1998, dated 2003)
pIC50: −log10 of the molar value.

Key:
MCR-5 = target: T1, MCR-5 (Homo sapiens, UniProt P33032); test: Melanocortin receptor binding assay, competition with 125I-HP 467, HEK 293 cells expressing hMCR-5; conditions: binding to MCR-5, HEK 293 cells; read-out: MC-5 IC50
T1 construct: expressed in transfected cells; host or cells: HEK 293
Source text: (§1) All cell culture media and reagents were obtained from GibcoBRL (Gaithersburg Md.), except for COSMIC CALF SERUM (HyClone; Logan Utah). HEK-293 cell lines were transfected with the human MC receptors hMCR-1, hMCR-3, and hMCR-4 (Gantz et al., Biochem. Biophys. Res. Comm. 200:1214-1220 (1994); Gantz et al., J. Biol. Chem. 268:8246-8250 (1993); Gantz et al. J. Biol. Chem. 268:15174-15179 (1993); Haskell-Leuvano et al., Biochem. Biophys. Res. Comm. 204:1137-1142 (1994); each of which is incorporated herein by reference). Vectors for construction of an hMCR-5 expressing cell line were obtained, and a line of HEK 293 cells expressing hMCR-5 was constructed (Gantz, supra, 1994). hMCR-5 has been described previously (Franberg et al., Biochem. Biophys. Res. Commun. 236:489-492 (1997); Chowdhary et al., Cytogenet. Cell Genet. 68:1-2 (1995); Chowdhary et al., Cytogenet. Cell Genet. 68:79-81 (1995), each of which is incorporated herein by reference). HEK 293 cells were maintained in DMEM, 25 mM HEPES, 2 mM glutamine, non-essential amino acids, vitamins, sodium pyruvate, 10% COSMIC CALF SERUM, 100 units/ml penicillin, 100 μg/ml streptomycin and 0.2 mg/ml G418 to maintain selection.
(§2) Before assaying, cells were washed once with phosphate buffered saline (“PBS”; without Ca^2+ and Mg^2+), and stripped from the flasks using 0.25% trypsin and 0.5 mM EDTA. Cells were suspended in PBS, 10% COSMIC CALF SERUM and 1 mM CaCl2. Cell suspensions were prepared at a density of 2×10^4 cells/ml for HEK 293 cells expressing hMCR-3, hMCR-4 or hMCR-5, and 1×10^5 cells/ml for HEK 293 cells expressing hMCR-1. Suspensions were placed in a water bath and allowed to warm to 37° C. for 1 hr.
(§3) Binding assays were performed in a total volume of 250 μl for HEK 293 cells. Control and test compounds were dissolved in distilled water. ^125I-HP 467 (50,000 dpm) (2000 Ci/mmol) (custom labeled by Amersham; Arlington Heights Ill.) was prepared in 50 mM Tris, pH 7.4, 2 mg/ml BSA, 10 mM CaCl2, 5 mM MgCl2, 2 mM EDTA and added to each tube. To each tube was added 4×10^3 HEK 293 cells expressing hMCR-3, hMCR-4 or hMCR-5, or 2×10^4 cells expressing hMCR-1. Assays were incubated for 2.5 hr at 37° C.
(§4) GF/B filter plates were prepared by soaking for at least one hour in 5 mg/ml BSA and 10 mM CaCl2. Assays were filtered using a Brandel 96-well cell harvester (Brandel Inc.; Gaithersburg, Md.). The filters were washed four times with cold 50 mM Tris, pH 7.4, the filter plates were dehydrated for 2 hr and 35 μl of MICROSCINT was added to each well. Filter plates were counted using a Packard Topcount (Packard Instrument Co.) and data analyzed using GraphPad PRISM v2.0 (GraphPad Software Inc.; San Diego Calif.) and Microsoft EXCEL v5.0a (Microsoft Corp.; Redmond Wash.).
(§5) To assay isoquinoline compounds, binding assays were performed in duplicate in a 96 well format. HP 467 was prepared in 50 mM Tris, pH 7.4, and ^125I-HP 467 was diluted to give 100,000 dpm per 50 μl. An isoquinoline compound, synthesized as described in Example I, was added to the well in 25 μl aliquots. A 25 μl aliquot of ^125I-HP 467 was added to each well. A 0.2 ml aliquot of suspended cells was added to each well to give the cell numbers indicate above, and the cells were incubated at 37° C. for 2.5 hr. Cells were harvested on GF/B filter plates as described above and counted.
(§6) Some of the isoquinoline compounds were further tested for binding to MCR-3 and MCR-5.

TNF-α = test: Reduction of lipopolysaccharide-induced tumor necrosis factor levels in mice; format: in vivo, BALB/c female mice; conditions: IP, plasma 90 or 105 minutes after LPS, mean ± SEM
Method: BALB/c female mice weighing approximately 20 g were placed into a control group and a treated group. Five mg/kg of LPS in 0.9% saline was administered (100 μl to give 100 μg LPS per mouse) by intraperitoneal (IP) injection to all mice. Mice in the treatment group received either 30, 100, 300 or 600 μg of various isoquinoline compounds per mouse in a volume of 100 μl of PBS. Control mice received 100 μl of saline alone. One minute after initial injections all mice received the LPS injection. As a positive control, 100 μg of HP 228 was injected per mouse.
Blood samples were collected from the orbital sinus of treated and control mice 90 minutes or 105 minutes after LPS administration. The plasma was separated by centrifugation at 3000×g for 5 min and stored at −20° C. Samples were thawed and diluted, if TNF-α concentration was greater than 3200 pg/ml, with PBS containing 1% bovine serum albumin, 10% donor horse serum, 1% normal mouse serum, 0.05% TWEEN-20 and 0.05% thimerosal. A 100 μl sample of plasma was assayed by ELISA for TNF-α. Briefly, ELISA plates were coated with hamster anti-mouse TNF-α antibody (Genzyme; Cambridge Mass.). Samples or known concentrations of TNF-α were added to the coated plates and incubated for 2 hr at 37° C. Plates were washed and subsequently incubated with biotinylated rabbit anti-mouse TNG-α for 1 hr at 37° C. Plates were washed and incubated with streptavidin-HRP for 1 hr at 37° C., and HRP activity was detected with hydrogen peroxide and o-phenylenediamine (OPD) using standard immunoassay procedures.
The mean (±SEM) TNF-α level in five mice from each group was determined and the percent reduction in TNF-α levels was calculated.

MCR-3 = target: T2, MCR-3 (Homo sapiens, UniProt P41968); test: Melanocortin receptor binding assay, competition with 125I-HP 467, HEK 293 cells expressing hMCR-3; conditions: binding to MCR-3, HEK 293 cells; read-out: MC-3 IC50
T2 construct: expressed in transfected cells; host or cells: HEK 293
Source text: as §1, §2, §3, §4, §5, §6

IL-10 = test: Increasing levels of IL-10 in mice (plasma ELISA); format: in vivo; conditions: IP, mouse plasma, 90 or 105 minutes
Method: Isoquinoline compounds were administered intraperitoneally to mice in doses of 30, 100 or 300 μg/mouse or orally in doses of 300 or 600 μg/mouse. Levels of IL-10 were measured 90 or 105 minutes after administration as indicated. Samples were collected and diluted, when appropriate, as described in Example VI. A 100 μl sample of plasma was assayed by ELISA for IL-10. Briefly, ELISA plates were coated with rat anti-mouse IL-10 monoclonal antibody (Pharmingen; San Diego Calif.). Samples or known concentrations of IL-10 were added to the coated plates and incubated for 2 hr at 37° C. Plates were washed and incubated with biotinylated rat anti-mouse IL-10 (R&D Systems; Minneapolis Minn.) for 1 hr at 37° C. Plates were washed and incubated with streptavidin-HRP 30 min at 37° C., and HRP activity was detected with hydrogen peroxide and TMB using standard immunoassay procedures.

[1] = tested on: arachidonic acid induced dermal inflammation; test: Arachidonic acid induced dermal inflammation (ear thickness); format: in vivo, Female BALB/c mice
Method: Female BALB/c mice (17-22 g) were used and administered the test isoquinoline compounds or positive control compounds 30 to 60 min prior to topical application of arachidonic acid. Indomethacin and HP 228 were used as positive controls. Compounds were administered orally (p.o.) or intraperitoneally (i.p.). Initial ear thickness (left and right) was measured using spring loaded micro-calipers. Arachidonic acid was applied to mice anesthetized with a cocktail of ketamine/xylazine (7.0 mg/ml and 0.6 mg/ml, respectively) administered i.p. (300 μl/mouse). Utilizing a micro-pipette, 20 μl of arachidonic acid solution (100 mg/ml ethanol or acetone) was applied to the right ear (10 μl to inner and 10 μl to outer surfaces of […] for a total of 2 mg arachidonic acid per right ear), and 20 μl of vehicle (ethanol or acetone) was applied to the left ear. Mice were returned to their cages to recover. Mice were again anesthetized 50 min after arachidonic acid application and their ears measured.
Dermal inflammation was determined by subtracting the difference of the vehicle treated left ear (L60−L0) from the difference of the arachidonic acid treated right ear (R60−R0). Ear thickness measurements were averaged for each group, and the responses in the vehicle treated control group (Cr; saline or PBS) were subtracted from the response noted in the isoquinoline compound treated group (Tr) to give the relative inflammatory response for each treatment group compared to the control group. The percent inhibition is defined by the equation: % inhibition=(Cr−Tr)/(Cr)×100.

[2] = Body weight and food consumption after i.p. administration; format: in vivo, Sprague-Dawley rats; conditions: rats, 5 mg/kg i.p., 18 hours after injection; FIG. 6
Source text: Adult male Sprague-Dawley rats (175-225 g) were used to assess the effect of isoquinoline compounds on food uptake and body weight. Baseline body weight and food consumption measurements were taken for 3 days prior to start of the study (Day 0). On Day −1, the food was taken away from the animals at 5:00 PM. The next morning (Day 0), body weight measurements were taken, and the animals were divided into treatment groups with 6 animals in each group. The treatment groups were saline control, HP 228 positive control and test isoquinoline compounds. Saline was administered i.p. at 1 ml/kg. HP 228 and test isoquinoline compounds were administered i.p. at 5 mg/kg. The injections were initiated at 2:00 PM on Day 0.
Body weight and food consumption measurements were taken at 9 hr (Day 0; 11:00 PM) and at 18 hr (Day 1, 8:00 AM) after injection. At the end of the study, all evaluated parameters (9 and 18 hour body weight and food consumption) were analyzed by standard statistical methods. Significance (P<0.05) was determined by one-way ANOVA, ANOVA for repeated measures, or Student's t-test.
The level of reduction was similar to that seen with HP 228.

T1 sequence (P33032 whole entry): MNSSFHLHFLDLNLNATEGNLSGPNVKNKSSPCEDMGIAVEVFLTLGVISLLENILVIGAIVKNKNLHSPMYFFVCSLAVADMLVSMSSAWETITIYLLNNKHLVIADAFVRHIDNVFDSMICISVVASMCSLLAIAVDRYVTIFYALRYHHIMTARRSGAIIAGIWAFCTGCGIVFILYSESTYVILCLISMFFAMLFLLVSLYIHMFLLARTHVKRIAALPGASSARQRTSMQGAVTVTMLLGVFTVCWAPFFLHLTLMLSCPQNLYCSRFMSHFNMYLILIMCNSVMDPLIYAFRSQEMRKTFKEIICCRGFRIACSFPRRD
T2 sequence (P41968 whole entry): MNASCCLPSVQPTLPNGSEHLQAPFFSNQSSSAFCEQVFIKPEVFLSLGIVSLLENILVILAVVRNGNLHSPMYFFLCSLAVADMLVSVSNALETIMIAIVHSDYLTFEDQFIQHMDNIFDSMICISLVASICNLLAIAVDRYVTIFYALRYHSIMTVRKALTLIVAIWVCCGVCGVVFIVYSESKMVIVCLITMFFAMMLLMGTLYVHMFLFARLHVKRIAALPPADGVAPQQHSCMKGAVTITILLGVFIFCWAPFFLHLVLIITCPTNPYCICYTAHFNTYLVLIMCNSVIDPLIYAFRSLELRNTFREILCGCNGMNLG

In the case of `CCNc1ccc(C2C(CNC3CCCC3)c3ccccc3CN2CCCCC(CN)NC)cc1` (stereo not drawn) [TRG 2407-67], the pIC50 (MCR-5) was 5.38, the “% TNF-α Inhibtion, IP 30” value (TNF-α; 30 μg per mouse) was 8 ± 14% and the “% TNF-α Inhibtion, IP 300” value (TNF-α; 300 μg per mouse) was 73 ± 3 %. The pIC50 (MCR-3) was 4.68, the “% IL-10 Induction, IP 30” value (IL-10; 30 μg per mouse) was −3 ± 15% and the “% IL-10 Induction, IP 300” value (IL-10; 300 μg per mouse) was 29 ± 8%.

In the case of `COc1ccc2c(c1)c(CC(=O)O)c(C)n2C(=O)c1ccc(Cl)cc1` [indomethacin, reference compound], the “inhibition of arachidonic acid induced dermal inflammation” value (“inhibition” below) ([1]; administered orally, TRG 2405-241 600 μg/mouse, indomethacin 1 mg/mouse, FIG. 2) was “inhibition of arachidonic acid induced dermal inflammation”.

With “Ac-Nle-Gln-His-(D)Phe-Arg-(D)Trp-Gly-NH2 [HP 228, reference compound]” the “inhibition” value ([1]; 100 μg/mouse administered intraperitoneally, FIG. 4) was “inhibition of arachidonic acid induced dermal inflammation”, the “inhibition” value ([1]; administered intraperitoneally, TRG 2405-241 300 μg/mouse, HP 228 100 μg/mouse, FIG. 3) was “inhibition of arachidonic acid induced dermal inflammation” and the “reduction in the level of arachidonic acid-induced dermal inflammation” value ([1]; intraperitoneally, HP 228 100 μg/mouse, TRG 2409-2 or TRG 2409-14 100 or 300 μg/mouse, FIG. 5) was “reduction”. For the same compound, the food consumption [2] was “reduction” and the weight gain [2] was “reduction”.
